Structures can show the parent of a compound that is named as a salt. Where two headings read alike, the source gives them in different places.
Assays:
[1] = molecular target: PI3Kδ (p110δ/p85α) Recombinant Human Protein (Homo sapiens (Human), UniProt O00329); assay: PI3Kδ Scintillation Proximity Assay; type: biochemical
In short: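 Radiometric read-out: 33P-labelled PIP3 product captured on WGA SPA beads and counted, with IC50 fitted from percent activity relative to DMSO control. Enzyme (3.4 nM) was incubated 120 min at room temperature with 20 μM PIP2 and 2 μM ATP at pH 6.7, 2% DMSO.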

[2] = molecular target: PI3Kγ (p110γ) Recombinant Human Protein (Homo sapiens (Human), UniProt P48736); assay: PI3K-γ Scintillation Proximity Assay; type: biochemical; conditions: read-out: PI3Kγ IC50
In short: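 Radiometric SPA readout: […] bound to WGA beads after overnight shaking, IC50 derived from % activity of DMSO control. Reaction used human p110γ, 2 μM ATP, 20 μM PIP2, pH 6.7 MOPS buffer with MgCl2, DTT, CHAPS, 2% DMSO, room temperature.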

[3] = test system: Phosphorylated Ribosomal Protein S6 (RPS6); assay: THP-1 RPS6 ELISA Assay; type: cell-based, Human; conditions: THP-1 cells, read-out: PI3Kγ_THP1_RPS6_ELISA IC50
In short: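 IC50 values come from a curve of percent inhibition against log compound concentration, using phospho-RPS6 ELISA (450 nm) on THP-1 lysates. Cells were serum-starved overnight, exposed to compound for 2 h at 37 °C, then challenged 15 min with 10 nM MCP-1.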

Sequence of PI3Kδ (p110δ/p85α) Recombinant Human Protein (O00329 whole entry): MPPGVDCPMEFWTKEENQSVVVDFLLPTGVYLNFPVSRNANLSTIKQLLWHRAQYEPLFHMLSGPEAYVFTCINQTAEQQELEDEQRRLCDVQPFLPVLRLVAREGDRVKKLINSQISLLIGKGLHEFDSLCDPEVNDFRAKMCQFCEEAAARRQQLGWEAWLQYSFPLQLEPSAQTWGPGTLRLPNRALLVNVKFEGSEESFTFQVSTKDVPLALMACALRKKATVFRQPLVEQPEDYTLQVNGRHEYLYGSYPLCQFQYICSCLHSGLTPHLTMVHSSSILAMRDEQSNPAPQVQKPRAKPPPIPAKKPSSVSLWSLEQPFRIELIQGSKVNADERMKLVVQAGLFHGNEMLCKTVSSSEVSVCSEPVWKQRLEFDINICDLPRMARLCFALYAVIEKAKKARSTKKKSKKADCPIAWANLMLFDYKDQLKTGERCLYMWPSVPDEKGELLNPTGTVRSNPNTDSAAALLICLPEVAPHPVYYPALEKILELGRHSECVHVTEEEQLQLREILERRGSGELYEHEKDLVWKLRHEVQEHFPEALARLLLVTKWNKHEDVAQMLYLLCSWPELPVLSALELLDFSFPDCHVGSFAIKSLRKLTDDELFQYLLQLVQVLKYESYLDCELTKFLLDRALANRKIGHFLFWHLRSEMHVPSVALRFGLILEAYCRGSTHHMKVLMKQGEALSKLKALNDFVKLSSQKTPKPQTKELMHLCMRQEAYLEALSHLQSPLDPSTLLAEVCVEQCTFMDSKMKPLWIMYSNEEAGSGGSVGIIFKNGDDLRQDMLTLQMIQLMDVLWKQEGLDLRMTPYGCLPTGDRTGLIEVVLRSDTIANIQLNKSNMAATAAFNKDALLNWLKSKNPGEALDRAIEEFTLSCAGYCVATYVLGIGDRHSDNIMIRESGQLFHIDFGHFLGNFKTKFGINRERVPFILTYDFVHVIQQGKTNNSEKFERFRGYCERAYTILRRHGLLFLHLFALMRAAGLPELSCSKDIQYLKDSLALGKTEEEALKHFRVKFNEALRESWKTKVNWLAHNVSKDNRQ
Sequence of PI3Kδ (p110δ/p85α) Recombinant Human Protein (P27986 whole entry partner): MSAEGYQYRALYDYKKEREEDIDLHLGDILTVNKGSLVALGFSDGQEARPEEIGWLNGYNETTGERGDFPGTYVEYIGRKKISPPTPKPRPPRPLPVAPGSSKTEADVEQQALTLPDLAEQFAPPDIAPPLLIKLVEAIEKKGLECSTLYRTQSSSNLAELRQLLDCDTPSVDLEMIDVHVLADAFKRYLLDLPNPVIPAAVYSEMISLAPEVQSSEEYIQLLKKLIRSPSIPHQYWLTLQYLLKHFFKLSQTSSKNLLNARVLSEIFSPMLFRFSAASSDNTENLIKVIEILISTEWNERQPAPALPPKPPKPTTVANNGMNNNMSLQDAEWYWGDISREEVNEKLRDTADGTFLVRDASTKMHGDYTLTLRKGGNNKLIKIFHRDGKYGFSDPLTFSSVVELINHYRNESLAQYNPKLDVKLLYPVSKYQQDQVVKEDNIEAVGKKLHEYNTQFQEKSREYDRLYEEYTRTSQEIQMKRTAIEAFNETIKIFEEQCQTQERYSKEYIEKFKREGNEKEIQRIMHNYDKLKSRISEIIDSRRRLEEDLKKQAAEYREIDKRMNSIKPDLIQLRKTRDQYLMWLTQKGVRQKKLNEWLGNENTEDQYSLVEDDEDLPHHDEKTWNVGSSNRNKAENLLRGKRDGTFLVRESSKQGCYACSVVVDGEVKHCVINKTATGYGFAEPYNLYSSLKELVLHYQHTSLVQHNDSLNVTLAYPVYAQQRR
Sequence of PI3Kγ (p110γ) Recombinant Human Protein (P48736 whole entry): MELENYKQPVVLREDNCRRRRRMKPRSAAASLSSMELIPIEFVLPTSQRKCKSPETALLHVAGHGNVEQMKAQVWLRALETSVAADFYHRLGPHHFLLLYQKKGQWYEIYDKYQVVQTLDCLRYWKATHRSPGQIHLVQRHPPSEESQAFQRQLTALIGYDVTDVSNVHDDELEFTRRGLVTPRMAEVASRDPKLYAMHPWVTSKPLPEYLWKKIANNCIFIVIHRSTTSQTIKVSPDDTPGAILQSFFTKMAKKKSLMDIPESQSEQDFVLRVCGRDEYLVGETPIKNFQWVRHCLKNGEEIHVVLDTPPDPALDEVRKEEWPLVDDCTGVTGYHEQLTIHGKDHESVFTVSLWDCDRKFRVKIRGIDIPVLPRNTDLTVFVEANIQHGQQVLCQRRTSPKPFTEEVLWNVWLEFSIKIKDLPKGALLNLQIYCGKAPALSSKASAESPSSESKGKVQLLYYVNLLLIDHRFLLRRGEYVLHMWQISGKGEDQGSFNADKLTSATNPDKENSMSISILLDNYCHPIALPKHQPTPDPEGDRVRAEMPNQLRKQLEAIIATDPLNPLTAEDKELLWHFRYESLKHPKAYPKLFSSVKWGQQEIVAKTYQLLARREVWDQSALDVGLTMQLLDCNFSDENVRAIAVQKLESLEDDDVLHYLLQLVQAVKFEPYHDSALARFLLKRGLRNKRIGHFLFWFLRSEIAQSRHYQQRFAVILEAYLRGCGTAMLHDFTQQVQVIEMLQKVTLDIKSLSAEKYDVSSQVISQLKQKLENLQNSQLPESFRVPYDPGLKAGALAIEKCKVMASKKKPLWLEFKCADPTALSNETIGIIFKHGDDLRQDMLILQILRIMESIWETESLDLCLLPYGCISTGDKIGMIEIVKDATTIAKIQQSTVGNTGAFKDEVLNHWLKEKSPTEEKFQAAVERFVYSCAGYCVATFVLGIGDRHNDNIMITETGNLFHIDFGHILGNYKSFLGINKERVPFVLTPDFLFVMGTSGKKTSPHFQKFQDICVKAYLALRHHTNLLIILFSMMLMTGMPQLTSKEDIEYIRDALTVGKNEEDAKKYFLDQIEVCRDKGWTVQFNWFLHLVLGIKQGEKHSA

IC50 [1] [nM] | IC50 [2] [nM] | IC50 [3] [nM] | IC50 ([3]; Homo sapiens) [nM] | Compound
100 to 500 | < 100 | < 100 | – | Cc1ccc(S(=O)(=O)NC23CC(Cn4ccnc4)(C2)C3)cc1-c1cnc2c(N)nc(C(F)(F)F)nn12 [Example 324, N-(3-((1H-Imidazol-1-yl)methyl)bicyclo[1.1.1]pentan-1-yl)-3-(4-amino-2-(trifluoromethyl)imidazo[1,2-f][1,2,4]triazin-7-yl)-4-methylbenzenesulfonamide trifluoroacetate salt]
< 100 | < 100 | 100 to 500 | – | CC(=O)N1CC(O)(CNS(=O)(=O)c2ccc(C)c(-c3cnc4c(N)nc(C(F)(F)F)nn34)c2)C1 [Example 325, N-((l-Acetyl-3-hydroxyazetidin-3-yl)methyl)-3-(4-amino-2-(trifluoromethyl)imidazo[1,2-f][1,2,4]triazin-7-yl)-4-methylbenzenesulfonamide trifluoroacetate salt]
100 to 500 | < 100 | 100 to 500 | – | Cc1ccc(S(=O)(=O)N[C@H]2CC[C@](C)(O)CC2)cc1-c1cnc2c(N)nc(C(F)(F)F)nn12 [Example 327, 3-(4-Amino-2-(trifluoromethyl)imidazo[1,2-f][1,2,4]triazin-7-yl)-N-((1r,4r)-4-hydroxy-4-methylcyclohexyl)-4-methylbenzenesulfonamide trifluoroacetate salt]
100 to 500 | < 100 | < 100 | – | Cc1ccc(S(=O)(=O)NC23CCC(CO)(C2)C3)cc1-c1cnc2c(N)nc(C(F)(F)F)nn12 [Example 328, 3-(4-Amino-2-(trifluoromethyl)imidazo[1,2-f][1,2,4]triazin-7-yl)-N-(4-(hydroxymethyl)bicyclo[2.1.1]hexan-1-yl)-4-methylbenzenesulfonamide trifluoroacetate salt]
100 to 500 | < 100 | 100 to 500 | – | Cc1ccc(S(=O)(=O)NC23CC(CF)(C2)C3)cc1-c1cnc2c(N)nc(C(F)(F)F)nn12 [Example 331, 3-(4-Amino-2-(trifluoromethyl)imidazo[1,2-f][1,2,4]triazin-7-yl)-N-(3-(fluoromethyl)bicyclo[1.1.1]pentan-1-yl)-4-methylbenzenesulfonamide trifluoroacetate salt]
100 to 500 | < 100 | < 100 | – | Cc1ccc(S(=O)(=O)NC23CC(F)(C2)C3)cc1-c1cnc2c(N)nc(C(F)(F)F)nn12 [Example 333, 3-(4-Amino-2-(trifluoromethyl)imidazo[1,2-f][1,2,4]triazin-7-yl)-N-(3-fluorobicyclo[1.1.1]pentan-1-yl)-4-methylbenzenesulfonamide trifluoroacetate salt]
100 to 500 | < 100 | 100 to 500 | – | Cc1ccc(S(=O)(=O)NCC2(O)CNC2)cc1-c1cnc2c(N)nc(C(F)(F)F)nn12 [Example 335, 3-(4-Amino-2-(trifluoromethyl)imidazo[1,2-f][1,2,4]triazin-7-yl)-N-((3-hydroxyazetidin-3-yl)methyl)-4-methylbenzenesulfonamide trifluoroacetate salt]
100 to 500 | < 100 | 100 to 500 | – | Cc1ccc(S(=O)(=O)NC23CC(Cn4cncn4)(C2)C3)cc1-c1cnc2c(N)nc(C(F)(F)F)nn12 [Example 338, N-(3-((1H-1,2,4-triazol-1-yl)methyl)bicyclo[1.1.1]pentan-1-yl)-3-(4-amino-2-(trifluoromethyl)imidazo[1,2-f][1,2,4]triazin-7-yl)-4-methylbenzenesulfonamide]
< 100 | < 100 | – | < 100 | Cc1ccc(S(=O)(=O)N2CC3(CC(O)C3)C2)cc1-c1cnc2c(N)nc(C(F)(F)F)nn12 [Example 343, 2-((3-(4-amino-2-(trifluoromethyl)imidazo[2,1-f][1,2,4]triazin-7-yl)-4-methylphenyl)sulfonyl)-2-azaspiro[3.3]heptan-6-ol TFA]
100 to 500 | < 100 | – | > 1000 | Cc1ccc(S(=O)(=O)N(CCC#N)C2CC2)cc1-c1cnc2c(N)nc(C(F)(F)F)nn12 [Example 345, 3-(4-amino-2-(trifluoromethyl)imidazo[2,1-f][1,2,4]triazin-7-yl)-N-(2-cyanoethyl)-N-cyclopropyl-4-methylbenzenesulfonamide]
100 to 500 | < 100 | – | 100 to 500 | Cc1ccc(S(=O)(=O)N(CCC#N)C2CCCC2)cc1-c1cnc2c(N)nc(C(F)(F)F)nn12 [Example 346, 3-(4-amino-2-(trifluoromethyl)imidazo[2,1-f][1,2,4]triazin-7-yl)-N-(2-cyanoethyl)-N-cyclopentyl-4-methylbenzenesulfonamide]

More lines, now with the values behind:

Compound | IC50 [1] [nM] | IC50 [2] [nM] | IC50 [3] [nM] | IC50 ([3]; Homo sapiens) [nM]
Cc1ccc(S(=O)(=O)NC2CN(CCO)C2)cc1-c1cnc2c(N)nc(C(F)(F)F)nn12 [Example 329, 3-(4-Amino-2-(trifluoromethyl)imidazo[1,2-f][1,2,4]triazin-7-yl)-N-(1-(2-hydroxyethyl)azetidin-3-yl)-4-methylbenzenesulfonamide trifluoroacetate salt] | 100 to 500 | < 100 | 100 to 500 | –
Cc1ccc(S(=O)(=O)NC23CC(C#N)(C2)C3)cc1-c1cnc2c(N)nc(C(F)(F)F)nn12 [Example 330, 3-(4-Amino-2-(trifluoromethyl)imidazo[1,2-f][1,2,4]triazin-7-yl)-N-(3-cyanobicyclo[1.1.1]pentan-1-yl)-4-methylbenzenesulfonamide trifluoroacetate salt] | < 100 | < 100 | < 100 | –
Cc1ccc(S(=O)(=O)NC23CC(Cn4cccn4)(C2)C3)cc1-c1cnc2c(N)nc(C(F)(F)F)nn12 [Example 332, N-(3-((1H-pyrazol-1-yl)methyl)bicyclo[1.1.1]pentan-1-yl)-3-(4-amino-2-(trifluoromethyl)imidazo[1,2-f][1,2,4]triazin-7-yl)-4-methylbenzenesulfonamide trifluoroacetate salt] | 100 to 500 | < 100 | < 100 | –
Cc1ccc(S(=O)(=O)NCC2(CO)CCOCC2)cc1-c1cnc2c(N)nc(C(F)(F)F)nn12 [Example 334, 3-(4-Amino-2-(trifluoromethyl)imidazo[1,2-f][1,2,4]triazin-7-yl)-N-((4-(hydroxymethyptetrahydro-2H-pyran-4-yl)methyl)-4-methylbenzenesulfonamide trifluoroacetate salt] | 100 to 500 | < 100 | < 100 | –
Cc1ccc(S(N)(=O)=O)cc1-c1cnc2c(N)nc(C(F)(F)F)nn12 [Example 336, 3-(4-Amino-2-(trifluoromethyl)imidazo[1,2-f][1,2,4]triazin-7-yl)-4-methylbenzenesulfonamide trifluoroacetate salt] | 100 to 500 | < 100 | 100 to 500 | –
Cc1ccc(S(=O)(=O)NC2CN(C3COC3)C2)cc1-c1cnc2c(N)nc(C(F)(F)F)nn12 [Example 337, 3-(4-Amino-2-(trifluoromethyl)imidazo[1,2-f][1,2,4]triazin-7-yl)-4-methyl-N-(1-(oxetan-3-yl)azetidin-3-yl)benzenesulfonamide trifluoroacetate salt] | 100 to 500 | < 100 | 100 to 500 | –
Cc1ccc(S(=O)(=O)NC23CC(C(F)F)(C2)C3)cc1-c1cnc2c(N)nc(C(F)(F)F)nn12 [Example 339, 3-(4-Amino-2-(trifluoromethyl)imidazo[1,2-f][1,2,4]triazin-7-yl)-N-(3-(difluoromethyl)bicyclo[1.1.1]pentan-1-yl)-4-methylbenzenesulfonamide trifluoroacetate salt] | 100 to 500 | < 100 | 100 to 500 | –
Cc1ccc(S(=O)(=O)NC23CC(N4CCOCC4)(C2)C3)cc1-c1cnc2c(N)nc(C(F)(F)F)nn12 [Example 340, 3-(4-Amino-2-(trifluoromethyl)imidazo[1,2-f][1,2,4]triazin-7-yl)-4-methyl-N-(3-morpholinobicyclo[1.1.1]pentan-1-yl)benzenesulfonamide trifluoroacetate salt] | 100 to 500 | < 100 | 100 to 500 | –
Cc1ccc(S(=O)(=O)NC23CC(N)(C2)C3)cc1-c1cnc2c(N)nc(C(F)(F)F)nn12 [Example 341, 3-(4-Amino-2-(trifluoromethyl)imidazo[1,2-f][1,2,4]triazin-7-yl)-N-(3-aminobicyclo[1.1.1]pentan-1-yl)-4-methylbenzenesulfonamide trifluoroacetate salt] | 100 to 500 | < 100 | 100 to 500 | –
Cc1ccc(S(=O)(=O)N2CC(O)(C3CC3)C2)cc1-c1cnc2c(N)nc(C(F)(F)F)nn12 [Example 342, 1-((3-(4-amino-2-(trifluoromethyl)imidazo[2,1-1,2,4]triazin-7-yl)-4-methylphenyl)sulfonyl)-3-cyclopropylazetidin-3-ol TFA] | 100 to 500 | < 100 | 100 to 500 | –
Cc1ccc(S(=O)(=O)N(C)CCC#N)cc1-c1cnc2c(N)nc(C(F)(F)F)nn12 [Example 344, 3-(4-amino-2-(trifluoromethyl)imidazo[2,1-f][1,2,4]triazin-7-yl)-N-(2-cyanoethyl)-N,4-dimethylbenzenesulfonamide] | < 100 | < 100 | – | 100 to 500
